Measured values from patent US20060019994A1, “I-sulphonlyl piperidine derivatives” (priority 2002, published 2006).

Target: T1, proTNF-α convertase enzyme (TACE) (Homo sapiens, UniProt P78536)
T1 construct: a partially purified, isolated enzyme assay, the enzyme being obtained from the membranes of THP-1; endogenous in cells; host or cells: THP-1 cell membranes, partially purified
Test: Isolated enzyme assay, proTNF-α convertase (TACE), partially purified enzyme from membranes of THP-1, fluorescent peptide substrate
Assay type: biochemical
Conditions: 26° C. for 4 hours, read-out: concentration causing 50% inhibition of TACE
Experimental: Recombinant human proMMP13 may be expressed and purified as described by Knauper et al. [V. Knauper et al., (1996) The Biochemical Journal 271:1544-1550 (1996)]. […] Activity is determined by measuring the fluorescence at λex 328 nm and λem 393 nm. Percent inhibition is calculated as follows: % Inhibition is equal to the [Fluorescenceplus inhibitor-Fluorescencebackground] divided by the [Fluorescenceminus inhibitor-Fluorescencebackground].
The ability of the compounds to inhibit proTNF-α convertase enzyme (TACE) may be assessed using a partially purified, isolated enzyme assay, the enzyme being obtained from the membranes of THP-1 as described by K. M. Mohler et al., (1994) Nature 370:218-220. The purified enzyme activity and inhibition thereof is determined by incubating the partially purified enzyme in the presence or absence of test compounds using the substrate 4′,5′-Dimethoxy-fluoresceinyl Ser.Pro.Leu.Ala.Gln.Ala.Val.Arg.Ser.Ser.Ser.Arg.Cys(4-(3-succinimid-1-yl)-fluorescein)-NH2 in assay buffer (50 mM Tris HCl, pH 7.4 containing 0.1% (w/v) Triton X-100 and 2 mM CaCl2), at 26° C. for 4 hours. The amount of inhibition is determined as for MMP13 except λex 485 nm and λem 538 nm were used. […]

T1 sequence (P78536 215-824): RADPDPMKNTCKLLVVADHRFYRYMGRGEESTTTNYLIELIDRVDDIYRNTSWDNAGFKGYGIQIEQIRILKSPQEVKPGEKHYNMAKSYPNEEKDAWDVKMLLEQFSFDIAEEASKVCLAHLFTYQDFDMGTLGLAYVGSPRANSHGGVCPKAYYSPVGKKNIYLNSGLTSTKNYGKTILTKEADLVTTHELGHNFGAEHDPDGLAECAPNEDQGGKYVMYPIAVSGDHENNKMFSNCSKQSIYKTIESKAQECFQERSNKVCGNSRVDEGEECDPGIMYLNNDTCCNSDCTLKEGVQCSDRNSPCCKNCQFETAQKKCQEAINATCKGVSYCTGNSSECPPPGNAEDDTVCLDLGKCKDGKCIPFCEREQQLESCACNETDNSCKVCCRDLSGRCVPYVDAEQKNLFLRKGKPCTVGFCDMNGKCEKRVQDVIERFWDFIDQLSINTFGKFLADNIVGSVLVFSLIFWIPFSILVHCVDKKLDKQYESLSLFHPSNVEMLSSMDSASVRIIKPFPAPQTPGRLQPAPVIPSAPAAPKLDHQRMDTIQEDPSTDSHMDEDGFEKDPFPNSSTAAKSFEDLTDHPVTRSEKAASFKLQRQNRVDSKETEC

IC50: 630 nM
SMILES: Cc1cc(COC2CCN(S(=O)(=O)CCC3NC(=O)NC3=O)CC2)c2ccccc2n1 (stereo not shown) [Example 3, 5-[2-({4-[(2-Methylquinolin-4-yl)methoxy]piperidin-1-yl}sulphonyl)ethyl]imidazolidine-2,4-dione]
